{"source": "patent US20240293405A1", "about": "“(1H-PYRROLO[2,3-B]PYRIDIN-1-YL)PYRIMIDIN-2-YL-AMINO-PHENYL-ACRYLAMIDE INHIBITORS OF EGFR FOR USE IN THE TREATMENT OF BRAIN TUMORS” (Dana-Farber Cancer Institute, Inc., priority 2021, published 2024)", "key": {"293-EGFRvIII cells": {"tested_on": "293-EGFRvIII cells", "assay": "Cell viability of 293-EGFRvIII cells (CellTiter-Glo)", "type": "cell-based, human", "settings": "Homo sapiens, 72 h, read-out: IC50, viability of 293-EGFRvIII cells", "experimental": "(§1) Cells were seeded in 96-well plates at a density of 1,000 cells per well and treated with two-fold serial dilutions of compounds with a starting concentration of 20 μM. Cell viability was assessed after three days of treatment by CellTiter-Glo (Promega). Curve fitting analysis and IC50 value determination were performed using GraphPad Prism 8."}, "U251-EGFRvIII cells": {"tested_on": "U251-EGFRvIII cells", "assay": "Viability/proliferation of U251-EGFRvIII cells", "type": "cell-based, human", "experimental": "as §1\nIn parallel, the conventional human GBM U251 cell line was used as a surrogate model for both in vitro and in vivo studies. U251 cells were engineered to stably express EGFRvIII (U251-EGFRvIII) via retroviral-mediated gene transfer."}, "ALK": {"target": "ALK (Homo sapiens, UniProt Q9UM73)", "sequence (Q9UM73 19-1620)": "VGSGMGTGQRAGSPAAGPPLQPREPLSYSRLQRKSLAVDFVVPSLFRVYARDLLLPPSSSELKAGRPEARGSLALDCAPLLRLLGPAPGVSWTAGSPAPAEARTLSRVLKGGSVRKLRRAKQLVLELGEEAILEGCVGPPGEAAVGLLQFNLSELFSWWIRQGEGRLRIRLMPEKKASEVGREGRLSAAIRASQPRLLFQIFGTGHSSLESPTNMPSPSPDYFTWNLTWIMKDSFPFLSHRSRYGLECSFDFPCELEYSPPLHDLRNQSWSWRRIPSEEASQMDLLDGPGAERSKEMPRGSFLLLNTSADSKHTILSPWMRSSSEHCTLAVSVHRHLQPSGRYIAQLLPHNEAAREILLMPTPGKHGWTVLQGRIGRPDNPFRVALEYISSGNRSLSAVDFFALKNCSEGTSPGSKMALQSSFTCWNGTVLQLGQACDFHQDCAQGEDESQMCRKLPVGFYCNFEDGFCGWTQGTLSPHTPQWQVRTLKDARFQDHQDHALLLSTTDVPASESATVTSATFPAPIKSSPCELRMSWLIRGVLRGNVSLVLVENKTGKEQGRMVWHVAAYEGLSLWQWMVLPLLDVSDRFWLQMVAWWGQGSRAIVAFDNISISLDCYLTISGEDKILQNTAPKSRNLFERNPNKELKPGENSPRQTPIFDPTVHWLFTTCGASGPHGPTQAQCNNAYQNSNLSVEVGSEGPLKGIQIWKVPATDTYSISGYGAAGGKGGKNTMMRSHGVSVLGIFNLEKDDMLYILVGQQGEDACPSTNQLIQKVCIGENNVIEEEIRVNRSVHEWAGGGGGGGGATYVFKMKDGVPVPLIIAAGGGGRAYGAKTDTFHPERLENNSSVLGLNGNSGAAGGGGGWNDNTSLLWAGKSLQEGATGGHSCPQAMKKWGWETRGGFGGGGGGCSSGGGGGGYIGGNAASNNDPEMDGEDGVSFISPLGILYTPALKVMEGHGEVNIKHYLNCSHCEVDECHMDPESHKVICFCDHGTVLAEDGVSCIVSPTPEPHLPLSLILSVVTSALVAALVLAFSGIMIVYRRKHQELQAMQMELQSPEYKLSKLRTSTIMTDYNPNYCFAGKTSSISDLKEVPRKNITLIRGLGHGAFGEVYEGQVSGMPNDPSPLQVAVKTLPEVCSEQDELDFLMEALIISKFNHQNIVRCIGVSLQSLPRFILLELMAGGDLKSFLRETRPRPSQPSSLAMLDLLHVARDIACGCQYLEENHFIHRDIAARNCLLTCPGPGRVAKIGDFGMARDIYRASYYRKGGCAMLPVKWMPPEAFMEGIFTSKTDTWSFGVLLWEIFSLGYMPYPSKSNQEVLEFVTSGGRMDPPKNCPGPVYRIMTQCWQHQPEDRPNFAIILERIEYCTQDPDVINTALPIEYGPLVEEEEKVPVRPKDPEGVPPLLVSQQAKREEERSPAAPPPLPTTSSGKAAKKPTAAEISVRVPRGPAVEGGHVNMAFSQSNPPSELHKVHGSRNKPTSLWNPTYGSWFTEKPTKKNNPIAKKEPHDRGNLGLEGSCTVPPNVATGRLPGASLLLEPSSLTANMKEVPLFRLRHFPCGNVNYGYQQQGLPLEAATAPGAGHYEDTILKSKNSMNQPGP", "assay": "Kinase binding constant (Kd)", "experimental": "(§2) EGFR amplifications and/or mutations are common in GBM, estimated to occur in over 50% of patients.\n(§3) Compound 1 and Compound 2 (major metabolite) were evaluated in a panel of 468 human kinases and disease relevant mutant variants. Compound 1 and Compound 2 bound to few non-mutant kinases at <1% of control. […] While there is some variability between Compound 1 and Compound 2, it is clear that both compounds are very effective at binding to a large panel of mutant kinases. […] Binding constant to wild type EGFR was 4.9 nM."}, "PDGFRA": {"target": "PDGFRA (Homo sapiens, UniProt P16234)", "sequence (P16234 24-1089)": "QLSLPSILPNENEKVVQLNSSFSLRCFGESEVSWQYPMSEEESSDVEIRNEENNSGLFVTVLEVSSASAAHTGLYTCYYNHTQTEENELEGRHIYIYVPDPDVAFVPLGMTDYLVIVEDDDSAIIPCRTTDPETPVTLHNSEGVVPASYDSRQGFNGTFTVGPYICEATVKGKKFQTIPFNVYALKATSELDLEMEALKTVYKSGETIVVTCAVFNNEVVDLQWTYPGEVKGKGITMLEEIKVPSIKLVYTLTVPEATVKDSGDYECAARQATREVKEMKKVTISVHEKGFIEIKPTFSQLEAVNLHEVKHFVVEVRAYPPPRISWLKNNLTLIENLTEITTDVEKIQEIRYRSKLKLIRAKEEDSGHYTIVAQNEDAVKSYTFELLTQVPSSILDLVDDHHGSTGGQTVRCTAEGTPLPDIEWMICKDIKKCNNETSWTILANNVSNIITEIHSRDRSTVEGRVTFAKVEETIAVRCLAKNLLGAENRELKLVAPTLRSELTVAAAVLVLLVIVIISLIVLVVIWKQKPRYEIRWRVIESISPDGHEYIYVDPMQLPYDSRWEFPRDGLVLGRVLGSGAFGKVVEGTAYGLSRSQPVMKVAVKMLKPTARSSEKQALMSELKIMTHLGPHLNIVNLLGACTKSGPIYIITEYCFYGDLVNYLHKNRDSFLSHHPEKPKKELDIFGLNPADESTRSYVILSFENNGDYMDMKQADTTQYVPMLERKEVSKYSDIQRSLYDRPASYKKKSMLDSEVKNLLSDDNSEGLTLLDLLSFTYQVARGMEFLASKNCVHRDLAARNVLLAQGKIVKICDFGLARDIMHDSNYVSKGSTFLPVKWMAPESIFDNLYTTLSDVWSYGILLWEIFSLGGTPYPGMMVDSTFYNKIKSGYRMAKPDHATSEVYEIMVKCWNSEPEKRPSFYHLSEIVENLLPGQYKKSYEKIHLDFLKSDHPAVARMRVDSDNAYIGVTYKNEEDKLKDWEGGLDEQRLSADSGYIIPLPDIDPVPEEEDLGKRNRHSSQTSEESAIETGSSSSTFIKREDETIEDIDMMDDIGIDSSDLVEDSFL", "assay": "Kinase binding constant (Kd)", "experimental": "as §2, §3"}, "PDGFRB": {"target": "PDGFRB (Homo sapiens, UniProt P09619)", "sequence (P09619 33-1106)": "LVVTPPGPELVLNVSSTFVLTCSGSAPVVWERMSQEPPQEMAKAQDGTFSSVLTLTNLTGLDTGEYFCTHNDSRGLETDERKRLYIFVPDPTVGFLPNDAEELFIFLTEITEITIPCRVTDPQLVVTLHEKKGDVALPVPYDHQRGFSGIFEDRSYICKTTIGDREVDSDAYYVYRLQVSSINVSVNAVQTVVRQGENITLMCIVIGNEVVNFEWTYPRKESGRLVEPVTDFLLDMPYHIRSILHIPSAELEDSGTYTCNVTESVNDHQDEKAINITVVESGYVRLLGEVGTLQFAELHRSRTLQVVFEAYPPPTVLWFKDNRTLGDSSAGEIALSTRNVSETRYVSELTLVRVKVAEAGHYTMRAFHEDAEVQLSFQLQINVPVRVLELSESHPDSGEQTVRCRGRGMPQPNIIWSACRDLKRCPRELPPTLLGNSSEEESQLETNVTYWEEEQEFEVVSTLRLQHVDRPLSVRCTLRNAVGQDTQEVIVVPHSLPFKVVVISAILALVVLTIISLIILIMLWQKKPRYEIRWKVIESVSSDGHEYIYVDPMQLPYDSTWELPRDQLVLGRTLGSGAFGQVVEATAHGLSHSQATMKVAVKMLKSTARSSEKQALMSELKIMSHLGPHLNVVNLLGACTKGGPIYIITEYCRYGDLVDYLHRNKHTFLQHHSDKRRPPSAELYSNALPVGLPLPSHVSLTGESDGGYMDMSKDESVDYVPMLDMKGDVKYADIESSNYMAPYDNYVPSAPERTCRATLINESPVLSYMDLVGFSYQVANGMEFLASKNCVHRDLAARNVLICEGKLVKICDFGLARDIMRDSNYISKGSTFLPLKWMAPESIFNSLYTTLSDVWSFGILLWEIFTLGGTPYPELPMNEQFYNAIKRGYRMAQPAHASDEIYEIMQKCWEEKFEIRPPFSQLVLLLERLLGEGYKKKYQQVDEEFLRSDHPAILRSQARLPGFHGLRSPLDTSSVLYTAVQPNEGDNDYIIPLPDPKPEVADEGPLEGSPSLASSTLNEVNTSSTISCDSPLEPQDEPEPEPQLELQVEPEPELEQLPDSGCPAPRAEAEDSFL", "assay": "Kinase binding constant (Kd)", "experimental": "as §2, §3"}, "[1]": {"assay": "Body weight over the course of treatment in mice", "type": "in vivo", "settings": "25 mg/kg; study endpoint reached within one month"}, "[2]": {"tested_on": "NCI-H1975 cells (EGFR L858R/T790M mutation)", "assay": "Cell viability assay, NCI-H1975 (CellTiter-Glo)", "type": "cell-based", "settings": "Homo sapiens, NCI-H1975, 72 h, read-out: IC50, cell viability", "text": "(§4) CellTier-Glo (Promega) assay kit (https://www.promega.com/resources/protocols/technical-bulletins/0/celltiter-glo-luminescentcell-viability-assay-protocol/) was used here."}, "[3]": {"tested_on": "PC-9 cells (EGFR exon 19 deletion)", "assay": "Cell viability assay, PC-9 (CellTiter-Glo)", "type": "cell-based", "settings": "Homo sapiens, PC-9, read-out: IC50, cell viability", "text": "as §4"}, "P-gp, Bcrp": {"tested_on": "P-gp, Bcrp", "settings": "previously published report; cited from earlier work"}, "NSCLC brain metastases": {"tested_on": "NSCLC brain metastases", "assay": "NSCLC brain metastases in SCID mice", "settings": "25 mg/kg; […]"}}, "note": "Like-named read-outs stand apart in the source and are kept apart here."}
{"smiles": "C=CC(=O)Nc1cc(Nc2nccc(-c3cn(C)c4ccccc34)n2)c(OC)cc1N(C)CCN(C)C", "note": "[Osimertinib, reference compound]", "values": [{"measurement": "IC50", "setting": "293-EGFRvIII cells", "result": 2190, "unit": "nM"}, {"measurement": "IC50", "setting": "U251-EGFRvIII cells; Homo sapiens, read-out: IC50, viability of U251-EGFRvIII cells", "result": "[…]"}, {"measurement": "IC50", "setting": "U251-EGFRvIII cells; Homo sapiens, read-out: IC50 on U251-EGFRvIII cell proliferation", "result": 2450, "unit": "nM"}, {"measurement": "IC50", "setting": "U251-EGFRvIII cells; read-out: IC50, viability of U251-EGFRvIII cells", "result": 2600, "unit": "nM"}, {"measurement": "Kd", "setting": "ALK", "result": 69, "unit": "nM"}, {"measurement": "Kd", "setting": "PDGFRA", "result": 740, "unit": "nM"}, {"measurement": "Kd", "setting": "PDGFRB", "result": 1500, "unit": "nM"}, {"measurement": "body weight over the course of treatment", "setting": "[1]", "result": "significant body weight loss"}, {"measurement": "IC50", "setting": "[2]", "result": "[…]"}, {"measurement": "IC50", "setting": "[3]", "result": 18.1, "unit": "nM"}, {"measurement": "Efflux Liability", "setting": "P-gp, Bcrp", "result": "P-gp, Bcrp"}, {"measurement": "time at which study endpoint was reached", "setting": "NSCLC brain metastases", "result": 4, "unit": "weeks"}]}
